Patent publication US10947271B2, “Antibacterial agents” (THE UNIVERSITY OF QUEENSLAND, priority 2014, dated 2021)

Tests used:
Format in all cases: cell-based
Conditions in all cases: 24 h incubation, visual reading
[1] = system: Staphylococcus aureus MRSA ATCC 43300; assay: MIC assay, S. aureus MRSA ATCC 43300
Protocol: (§1) Antimicrobial activity of compounds was tested against a number of bacterial strains, including Staphylococcus aureus (MRSA ATCC 43300, GISA NRS17, VISA NRS1, MRSA clinical isolate, daptomycin resistant clinical isolate), Streptococcus pneumoniae (MDR ATCC 700677), Enterococcus faecalis (VanA clinical isolate) and Enterococcus faecium (MDR Van A ATCC 51559).
(§2) All compounds were prepared to 160 μg/ml solution in water from a stock solution of 1 mM concentration.
(§3) The compounds, along with standard antibiotics were serially diluted twofold across the wells of 96-well non-binding surface plates (NBS, Corning). Standards ranged from 64 μg/ml to 0.03 μg/ml and compounds from 8 μg/ml to 0.003 μg/ml with final volumes of 50 μL per well. Gram positive bacteria were cultured in Muller Hinton broth (MHB) (Bacto laboratories, Cat. no. 211443) at 37° C. overnight. A sample of each culture was then diluted 40-fold in fresh MHB broth and incubated at 37° C. for 2-3 hrs. The resultant mid-log phase cultures were diluted to the final concentration of 5×10e5 CFU/mL, then 50 μL was added to each well of the compound-containing 96-well plates. All the plates were covered and incubated at 37° C. for 24 h. MICs were the lowest concentration showing no visible growth.
(§4) MICs were determined visually at 24 hr incubation and the MIC was defined as the lowest concentration with which no growth was visible after incubation. Both MIC and MBC were determined by visual inspection only.

[2] = system: Enterococcus faecium MDR Van A ATCC 51559; assay: MIC assay, E. faecium MDR Van A ATCC 51559
Protocol: as §1, §2, §3, §4

[3] = system: Streptococcus pneumoniae MDR ATCC 700677; assay: MIC assay, S. pneumoniae MDR ATCC 700677
Protocol: as §1, §2, §3, §4

| Minimum Inhibitory Concentration (MIC) Staph. aureus ATCC43300 [1] | Minimum Inhibitory Concentration (MIC) E. faecium ATCC51559 [2] | Minimum Inhibitory Concentration (MIC) S. pneumoniae ATCC 700677 [3] | SMILES |
| --- | --- | --- | --- |
| xx (xx = 1-4) | x (x = >4) | xx (xx = 1-4) | CCCCCCCC(=O)N[C@@H](CCCCN)C(=O)N[C@@H](CCCCNC(=O)[C@H]1NC(=O)[C@H]2NC(=O)[C@H](NC(=O)[C@@H]3NC(=O)[C@H](CC(N)=O)NC(=O)[C@H](NC(=O)[C@@H](CC(C)C)NC)[C@H](O)c4ccc(c(Cl)c4)Oc4cc3cc(c4O[C@@H]3O[C@H](CO)[C@@H](O)[C@H](O)[C@H]3O[C@H]3C[C@](C)(N)[C@H](O)[C@H](C)O3)Oc3ccc(cc3Cl)[C@H]2O)c2ccc(O)c(c2)-c2c(O)cc(O)cc21)C(=O)O [MCC_005222] |
| xxxx (xxxx = 0.01-<0.1) | x (x = >4) | xxxx (xxxx = 0.01-<0.1) | CCCCCCCCCC(=O)N[C@@H](CCCNC(=N)N)C(=O)N[C@@H](CCCNC(=N)N)C(=O)N[C@@H](CCCCNC(=O)[C@H]1NC(=O)[C@H]2NC(=O)[C@H](NC(=O)[C@@H]3NC(=O)[C@H](CC(N)=O)NC(=O)[C@H](NC(=O)[C@@H](CC(C)C)NC)[C@H](O)c4ccc(c(Cl)c4)Oc4cc3cc(c4O[C@@H]3O[C@H](CO)[C@@H](O)[C@H](O)[C@H]3O[C@H]3C[C@](C)(N)[C@H](O)[C@H](C)O3)Oc3ccc(cc3Cl)[C@H]2O)c2ccc(O)c(c2)-c2c(O)cc(O)cc21)C(=O)O [MCC_005507] |
| xxxxx (xxxxx = <0.01) | xxx (xxx = 0.1-<1) | xxxx (xxxx = 0.01-<0.1) | CCCCCCCCCC(=O)NC(CCCNC(=N)N)C(=O)NC(CCCCN)C(=O)NCCCNC(=O)C1NC(=O)C2NC(=O)C(NC(=O)C3NC(=O)C(CC(N)=O)NC(=O)C(NC(=O)C(CC(C)C)NC)C(O)c4ccc(c(Cl)c4)Oc4cc3cc(c4OC3OC(CO)C(O)C(O)C3OC3CC(C)(N)C(O)C(C)O3)Oc3ccc(cc3Cl)C2O)c2ccc(O)c(c2)-c2c(O)cc(O)cc21 (stereo not drawn) [MCC_005487] |
| xx (xx = 1-4) | x (x = >4) | xx (xx = 1-4) | CN[C@H](CC(C)C)C(=O)N[C@H]1C(=O)N[C@@H](CC(N)=O)C(=O)N[C@H]2C(=O)N[C@H]3C(=O)N[C@H](C(=O)N[C@H](C(=O)NCCCC[C@H](NC(=O)[C@H](CCCCN)NC(=O)[C@H](CCCCN)NC(=O)CC4CCCCC4)C(=O)O)c4cc(O)cc(O)c4-c4cc3ccc4O)[C@H](O)c3ccc(c(Cl)c3)Oc3cc2cc(c3O[C@@H]2O[C@H](CO)[C@@H](O)[C@H](O)[C@H]2O[C@H]2C[C@](C)(N)[C@H](O)[C@H](C)O2)Oc2ccc(cc2Cl)[C@H]1O [MCC_005502] |

Second part, the compound before the results:

| SMILES | Minimum Inhibitory Concentration (MIC) Staph. aureus ATCC43300 [1] | Minimum Inhibitory Concentration (MIC) E. faecium ATCC51559 [2] | Minimum Inhibitory Concentration (MIC) S. pneumoniae ATCC 700677 [3] |
| --- | --- | --- | --- |
| CNC(CC(C)C)C(=O)NC1C(=O)NC(CC(N)=O)C(=O)NC2C(=O)NC3C(=O)NC(C(=O)NC(C(=O)NCCCCC(NC(=O)C(CCCCN)NC(=O)C(CCCCN)NC(=O)C(CCCCN)NC(=O)C(CCCCNC(=O)c4ccc(Oc5ccccc5)cc4)NC(=O)c4ccc(Oc5ccccc5)cc4)C(=O)O)c4cc(O)cc(O)c4-c4cc3ccc4O)C(O)c3ccc(c(Cl)c3)Oc3cc2cc(c3OC2OC(CO)C(O)C(O)C2OC2CC(C)(N)C(O)C(C)O2)Oc2ccc(cc2Cl)C1O (stereo not drawn) [MCC_000230] | xxxxx (xxxxx = <0.01) | xxx (xxx = 0.1-<1) | xxxx (xxxx = 0.01-<0.1) |
| CCCCCCCCCCCCCCC(=O)NC(CCCCN)C(=O)NC(CCCCN)C(=O)NC(CCCCNC(=O)C1NC(=O)C2NC(=O)C(NC(=O)C3NC(=O)C(CC(N)=O)NC(=O)C(NC(=O)C(CC(C)C)NC)C(O)c4ccc(c(Cl)c4)Oc4cc3cc(c4OC3OC(CO)C(O)C(O)C3OC3CC(C)(N)C(O)C(C)O3)Oc3ccc(cc3Cl)C2O)c2ccc(O)c(c2)-c2c(O)cc(O)cc21)C(=O)NC (stereo not drawn) [MCC_000495] | xxxx (xxxx = 0.01-<0.1) | xxx (xxx = 0.1-<1) | xxxxx (xxxxx = <0.01) |
| CCCCCCCCCCC(=O)N[C@@H](CCCCN)C(=O)N[C@@H](CCCCNC(=O)[C@H]1NC(=O)[C@H]2NC(=O)[C@H](NC(=O)[C@@H]3NC(=O)[C@H](CC(N)=O)NC(=O)[C@H](NC(=O)[C@@H](CC(C)C)NC)[C@H](O)c4ccc(c(Cl)c4)Oc4cc3cc(c4O[C@@H]3O[C@H](CO)[C@@H](O)[C@H](O)[C@H]3O[C@H]3C[C@](C)(N)[C@H](O)[C@H](C)O3)Oc3ccc(cc3Cl)[C@H]2O)c2ccc(O)c(c2)-c2c(O)cc(O)cc21)C(N)=O [MCC_005062] | xxxx (xxxx = 0.01-<0.1) | x (x = >4) | xxxx (xxxx = 0.01-<0.1) |
| CNC(=O)C(CCCCNC(=O)C1NC(=O)C2NC(=O)C(NC(=O)C3NC(=O)C(CC(N)=O)NC(=O)C(NC(=O)C(CC(C)C)NC)C(O)c4ccc(c(Cl)c4)Oc4cc3cc(c4OC3OC(CO)C(O)C(O)C3OC3CC(C)(N)C(O)C(C)O3)Oc3ccc(cc3Cl)C2O)c2ccc(O)c(c2)-c2c(O)cc(O)cc21)NC(=O)C(CCCCN)NC(=O)C(CCCCN)NC(=O)c1ccc(Oc2ccc(F)cc2)cc1 (stereo not drawn) [MCC_000514] | xxx (xxx = 0.1-<1) | x (x = >4) | xxx (xxx = 0.1-<1) |
| CCCCCCCCCCCCCC(=O)N[C@@H](CCCCN)C(=O)N[C@@H](CCCCN)C(=O)N[C@@H](CCCCNC(=O)[C@H]1NC(=O)[C@H]2NC(=O)[C@H](NC(=O)[C@@H]3NC(=O)[C@H](CC(N)=O)NC(=O)[C@H](NC(=O)[C@@H](CC(C)C)NC)[C@H](O)c4ccc(c(Cl)c4)Oc4cc3cc(c4O[C@@H]3O[C@H](CO)[C@@H](O)[C@H](O)[C@H]3O[C@H]3C[C@](C)(N)[C@H](O)[C@H](C)O3)Oc3ccc(cc3Cl)[C@H]2O)c2ccc(O)c(c2)-c2c(O)cc(O)cc21)C(N)=O [MCC_000974] | xxxxx (xxxxx = <0.01) | xxx (xxx = 0.1-<1) | xxxxx (xxxxx = <0.01) |
| CNC(=O)C(CCCCNC(=O)C1NC(=O)C2NC(=O)C(NC(=O)C3NC(=O)C(CC(N)=O)NC(=O)C(NC(=O)C(CC(C)C)NC)C(O)c4ccc(c(Cl)c4)Oc4cc3cc(c4OC3OC(CO)C(O)C(O)C3OC3CC(C)(N)C(O)C(C)O3)Oc3ccc(cc3Cl)C2O)c2ccc(O)c(c2)-c2c(O)cc(O)cc21)NC(=O)C(CCCCN)NC(=O)C(CCCCNC(=O)c1ccc(Oc2ccc(Cl)cc2)cc1)NC(=O)c1ccc(Oc2ccc(Cl)cc2)cc1 (stereo not drawn) [MCC_000517] | xxxx (xxxx = 0.01-<0.1) | xxx (xxx = 0.1-<1) | xxxxxx |
| CNC(=O)[C@H](CCCCNC(=O)[C@H]1NC(=O)[C@H]2NC(=O)[C@H](NC(=O)[C@@H]3NC(=O)[C@H](CC(N)=O)NC(=O)[C@H](NC(=O)[C@@H](CC(C)C)NC)[C@H](O)c4ccc(c(Cl)c4)Oc4cc3cc(c4O[C@@H]3O[C@H](CO)[C@@H](O)[C@H](O)[C@H]3O)Oc3ccc(cc3Cl)[C@H]2O)c2ccc(O)c(c2)-c2c(O)cc(O)cc21)NC(=O)[C@H](CCCCN)NC(=O)[C@H](CCCCN)NC(=O)[C@H](CCCCNC(=O)CCCOc1ccccc1)NC(=O)CCCOc1ccccc1 [MCC_000604] | xx (xx = 1-4) | x (x = >4) | xx (xx = 1-4) |
